Literature values, collected in patent US20080293652A1, “Combination of Ad-P53 and Chemotherapy for the Treatment of Tumours” (priority 2004, published 2008).
Numbered stars: 1 amine (or outer) side, 2 acyl side, 3 side chain; on linkers, the order of the positions; unused ones are H or OH. Bridge positions count the residues as written; N and C are the ends. Square brackets hold non-standard residues; d marks the D form. Peptide text beside a SMILES is read from it. I, II: the chains in the order shown. Actinocin(9to1) = Cc1c2oc3c(C)ccc(C(=O)[*:1])c3nc-2c(C(=O)[*:2])c(N)c1=O; NMeV = CN[C@H](C(=O)O)C(C)C; Sar = CNCC(=O)O

Key:
[1] = for part of the dose excreted / detected intact in the urine: in vivo
multiple myeloma = conditions: oral administration

SMILES | part of the dose excreted / detected intact in the urine [1] | other results
CC[C@]1(O)C[C@H]2CN(CCc3c([nH]c4ccccc34)[C@@](C(=O)OC)(c3cc4c(cc3OC)N(C=O)[C@H]3[C@@](O)(C(=O)OC)[C@H](OC(C)=O)[C@]5(CC)C=CCN6CC[C@]43[C@@H]65)C2)C1 [Vincristine] | – | terminal half-life (clearance from plasma) ([1]; multiphasic clearance): about 24 hours
Cc1c2oc3c(C)ccc(C(=O)N[C@@H]4C(=O)N[C@H](C(C)C)C(=O)N5CCC[C@H]5C(=O)N(C)CC(=O)N(C)[C@@H](C(C)C)C(=O)O[C@@H]4C)c3nc-2c(C(=O)N[C@@H]2C(=O)N[C@H](C(C)C)C(=O)N3CCC[C@H]3C(=O)N(C)CC(=O)N(C)[C@@H](C(C)C)C(=O)O[C@@H]2C)c(N)c1=O [Actinomycin D] (I: T[dV]P[Sar][NMeV] / II: T[dV]P[Sar][NMeV]; ester I:1-I:C, II:1-II:C; linker I:N-II:N via Actinocin(9to1)) | 10% | –
N[C@@H](Cc1ccc(N(CCCl)CCCl)cc1)C(=O)O [Melphalan, 4-[bis(2-chloroethyl)amino]-L-phenylalanine] | – | part of patients showing a favorable response (multiple myeloma): one third to one half
CC[C@]1(O)C[C@@H]2CN(CCc3c([nH]c4ccccc34)[C@@](C(=O)OC)(c3cc4c(cc3OC)N(C)[C@H]3[C@@](O)(C(=O)OC)[C@H](OC(C)=O)[C@]5(CC)C=CCN6CC[C@]43[C@@H]65)C2)C1 [Vinblastine] | Approximately 15% | –
